The target in assay [1] is RON (human) (Homo sapiens, UniProt Q04912). In words: RON (human) AlphaScreen kinase assay, Km of ATP. The class given is biochemical. The note with it: AlphaScreen, Km of ATP; read-out: RON biochemical IC50. A digest of the protocol: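 Detection used PT66 AlphaScreen beads added in Tris pH 7.5/NaCl/EDTA/BSA buffer, read after 1 h incubation. Vehicle-only DMSO wells served as controls.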

Assay [2] has as its target MET (human) (Homo sapiens, UniProt P08581). Kind of assay: MET (human) AlphaScreen kinase assay, Km of ATP. The format is biochemical. The note with it: AlphaScreen, Km of ATP; read-out: Met biochemical IC50. A digest of the protocol: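 Human MET at lot-optimised concentration in 50 mM Tris pH 7.4 buffer with 1 mM DTT, compound at 1% DMSO final; enzyme starts the reaction, 60 min at RT.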

Structures are written as SMILES. pIC50: −log10 of the molar value. Some results are limits rather than exact numbers.

Sequence of RON (human) (Q04912 25-1400): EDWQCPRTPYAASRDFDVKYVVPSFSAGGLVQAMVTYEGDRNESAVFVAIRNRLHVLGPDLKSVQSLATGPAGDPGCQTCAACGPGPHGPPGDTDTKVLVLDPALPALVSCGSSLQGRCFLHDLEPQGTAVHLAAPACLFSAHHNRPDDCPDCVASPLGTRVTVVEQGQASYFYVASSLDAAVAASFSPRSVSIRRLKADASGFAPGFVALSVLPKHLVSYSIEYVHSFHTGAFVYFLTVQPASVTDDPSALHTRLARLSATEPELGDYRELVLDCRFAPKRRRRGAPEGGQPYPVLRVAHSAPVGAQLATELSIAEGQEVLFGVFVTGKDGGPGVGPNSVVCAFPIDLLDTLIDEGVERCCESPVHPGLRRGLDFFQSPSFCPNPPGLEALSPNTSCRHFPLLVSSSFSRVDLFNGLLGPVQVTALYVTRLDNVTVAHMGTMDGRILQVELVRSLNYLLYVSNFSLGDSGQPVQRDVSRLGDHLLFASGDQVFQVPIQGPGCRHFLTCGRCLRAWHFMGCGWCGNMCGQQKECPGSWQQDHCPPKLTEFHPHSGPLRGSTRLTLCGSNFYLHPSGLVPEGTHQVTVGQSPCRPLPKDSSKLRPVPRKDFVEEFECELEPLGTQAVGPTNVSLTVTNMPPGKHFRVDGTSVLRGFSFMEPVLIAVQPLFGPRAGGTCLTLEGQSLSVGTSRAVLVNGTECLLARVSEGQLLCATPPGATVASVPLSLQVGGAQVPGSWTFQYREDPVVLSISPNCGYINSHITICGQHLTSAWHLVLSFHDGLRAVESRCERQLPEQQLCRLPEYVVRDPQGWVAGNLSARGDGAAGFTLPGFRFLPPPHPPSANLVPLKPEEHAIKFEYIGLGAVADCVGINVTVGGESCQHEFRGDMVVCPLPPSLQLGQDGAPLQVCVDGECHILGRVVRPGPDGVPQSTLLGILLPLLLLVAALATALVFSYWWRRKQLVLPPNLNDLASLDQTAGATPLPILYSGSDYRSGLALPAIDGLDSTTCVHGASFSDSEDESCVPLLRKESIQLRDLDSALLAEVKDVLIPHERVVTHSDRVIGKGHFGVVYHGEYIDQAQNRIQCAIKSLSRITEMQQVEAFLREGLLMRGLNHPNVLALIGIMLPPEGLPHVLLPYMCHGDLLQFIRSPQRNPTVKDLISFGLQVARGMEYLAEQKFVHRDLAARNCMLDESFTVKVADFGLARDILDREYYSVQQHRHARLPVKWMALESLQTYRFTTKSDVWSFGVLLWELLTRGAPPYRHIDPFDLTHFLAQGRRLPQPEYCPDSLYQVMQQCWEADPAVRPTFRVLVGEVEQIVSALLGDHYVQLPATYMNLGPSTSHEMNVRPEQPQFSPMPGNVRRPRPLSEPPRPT
Sequence of MET (human) (P08581 25-1390): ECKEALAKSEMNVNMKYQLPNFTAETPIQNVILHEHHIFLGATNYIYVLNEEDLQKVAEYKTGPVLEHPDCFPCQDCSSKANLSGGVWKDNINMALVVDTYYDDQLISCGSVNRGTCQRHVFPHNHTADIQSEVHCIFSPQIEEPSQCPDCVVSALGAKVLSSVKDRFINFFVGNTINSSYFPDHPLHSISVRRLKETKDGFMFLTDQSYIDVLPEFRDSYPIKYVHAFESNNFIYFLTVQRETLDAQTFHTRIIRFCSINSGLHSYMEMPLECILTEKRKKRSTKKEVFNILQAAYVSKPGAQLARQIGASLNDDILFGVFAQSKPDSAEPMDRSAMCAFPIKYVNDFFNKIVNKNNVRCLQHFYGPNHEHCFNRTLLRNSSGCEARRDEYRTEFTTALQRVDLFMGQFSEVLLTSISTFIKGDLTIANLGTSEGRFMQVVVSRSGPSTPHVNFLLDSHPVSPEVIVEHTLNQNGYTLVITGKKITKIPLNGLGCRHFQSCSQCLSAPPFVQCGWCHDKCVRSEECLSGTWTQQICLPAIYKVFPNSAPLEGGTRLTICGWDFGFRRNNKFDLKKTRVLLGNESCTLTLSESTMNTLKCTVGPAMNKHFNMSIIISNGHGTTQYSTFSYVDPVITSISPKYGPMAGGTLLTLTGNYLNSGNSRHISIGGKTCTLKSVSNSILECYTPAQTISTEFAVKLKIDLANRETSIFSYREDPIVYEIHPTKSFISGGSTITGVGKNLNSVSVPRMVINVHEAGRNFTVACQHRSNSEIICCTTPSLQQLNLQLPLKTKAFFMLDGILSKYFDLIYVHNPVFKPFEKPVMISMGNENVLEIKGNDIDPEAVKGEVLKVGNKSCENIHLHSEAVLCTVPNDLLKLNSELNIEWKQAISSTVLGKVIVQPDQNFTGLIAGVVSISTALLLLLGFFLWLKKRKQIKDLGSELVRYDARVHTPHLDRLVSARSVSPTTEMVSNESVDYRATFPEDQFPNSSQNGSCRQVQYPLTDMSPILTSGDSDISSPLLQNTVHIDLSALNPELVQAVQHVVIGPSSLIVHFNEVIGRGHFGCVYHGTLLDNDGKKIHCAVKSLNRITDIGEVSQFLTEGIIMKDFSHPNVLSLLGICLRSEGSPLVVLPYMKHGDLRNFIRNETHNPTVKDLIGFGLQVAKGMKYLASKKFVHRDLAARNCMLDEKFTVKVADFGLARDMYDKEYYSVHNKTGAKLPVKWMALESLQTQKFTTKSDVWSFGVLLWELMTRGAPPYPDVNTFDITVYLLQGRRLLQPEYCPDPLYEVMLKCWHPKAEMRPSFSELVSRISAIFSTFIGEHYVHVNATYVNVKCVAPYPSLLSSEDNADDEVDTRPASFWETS

Consider `CNC(=O)c1ccc(-c2coc3c(O[C@H](C)c4c(Cl)ccc(F)c4Cl)c(N)ncc23)cc1` [Example 289, 4-{6-Amino-7-[(R)-1-(2,6-dichloro-3-fluorophenyl)ethoxy]furo[3,2-c]pyridin-3-yl}-N-methylbenzamide], for which the negative-log IC50 (pIC50) in assay [1] and in assay [2] was 5.30 to 6.30 in each case.

As to `C[C@@H](Oc1c(N)ncc2c(-c3ccc(C(=O)N4CCCCC4)cc3)coc12)c1c(Cl)ccc(F)c1Cl` [Example 290, (4-{6-Amino-7-[(R)-1-(2,6-dichloro-3-fluorophenyl)ethoxy]furo[3,2-c]pyridin-3-yl}phenyl)piperidin-1-ylmethanone], the pIC50 in assay [1] and in assay [2] was 5.30 to 6.30 each time.

For the molecule `C[C@@H](Oc1c(N)ncc2c(-c3ccc(CN4CCOCC4)s3)coc12)c1c(Cl)ccc(F)c1Cl` [Example 291], the pIC50 in assay [1] and in assay [2] was 5.30 to 6.30 in each case.

For `COC(=O)c1csc(-c2coc3c(O[C@H](C)c4c(Cl)ccc(F)c4Cl)c(N)ncc23)c1` [Example 292, 5-{6-Amino-7-[(R)-1-(2,6-dichloro-3-fluorophenyl)ethoxy]furo[3,2-c]pyridin-3-yl}thiophene-3-carboxylic acid methyl ester], the pIC50 in assay [1] and in assay [2] was 5.30 to 6.30 in each case.

For `C[C@@H](Oc1c(N)ncc2c(-c3ccc(C(=O)N4CCCN(C)CC4)cc3)coc12)c1c(Cl)ccc(F)c1Cl` [Example 293, (4-{6-Amino-7-[(R)-1-(2,6-dichloro-3-fluorophenyl)ethoxy]furo[3,2-c]pyridin-3-yl}phenyl)-(4-methyl-[1,4]diazepan-1-yl)methanone], the pIC50 in assay [1] and in assay [2] was more than 6.30 throughout.

Consider `C[C@@H]1CN[C@@H](C)CN1C(=O)c1ccc(-c2coc3c(O[C@H](C)c4c(Cl)ccc(F)c4Cl)c(N)ncc23)cc1` [Example 295], for which the negative logarithm of the IC50 (pIC50) in assay [1] and in assay [2] was 5.30 to 6.30 in each case.

As to `C[C@@H](Oc1c(N)ncc2c(-c3ccc(C(=O)N4CCC(O)CC4)cc3)coc12)c1c(Cl)ccc(F)c1Cl` [Example 296, (4-{6-Amino-7-[(R)-1-(2,6-dichloro-3-fluorophenyl)ethoxy]furo[3,2-c]pyridin-3-yl}phenyl)-(4-hydroxypiperidin-1-yl)methanone], the pIC50 in assay [1] and in assay [2] was 5.30 to 6.30 in each case.

In the case of `C[C@@H]1CN(C(=O)c2ccc(-c3coc4c(O[C@H](C)c5c(Cl)ccc(F)c5Cl)c(N)ncc34)cc2)C[C@H](C)O1` [Example 297, (4-{6-Amino-7-[(R)-1-(2,6-dichloro-3-fluorophenyl)ethoxy]-furo[3,2-c]pyridin-3-yl}phenyl)-(2,6-cis-dimethylmorpholin-4-yl)methanone], the pIC50 in assay [1] and in assay [2] was 5.30 to 6.30 throughout.

On to `C[C@@H](Oc1c(N)ncc2c(-c3ccc(C(=O)NCC(C)(C)CN(C)C)cc3)coc12)c1c(Cl)ccc(F)c1Cl` [Example 298, 4-{6-Amino-7-[(R)-1-(2,6-dichloro-3-fluorophenyl)ethoxy]furo[3,2-c]pyridin-3-yl}-N-(3-dimethylamino-2,2-dimethylpropyl)benzamide], for which the negative logarithm of the IC50 (pIC50) in assay [1] is 5.30 to 6.30; in assay [2], more than 6.30.

For the molecule `C[C@@H](Oc1c(N)ncc2c(-c3ccc(C(=O)N4CCC(O)C4)cc3)coc12)c1c(Cl)ccc(F)c1Cl` (stereo partly drawn) [Example 299], the pIC50 in assay [1] and in assay [2] was 5.30 to 6.30 each time.

Turning to `C[C@@H](Oc1c(N)ncc2c(-c3ccc(C(=O)N4CCN(CC(=O)N(C)C)CC4)cc3)coc12)c1c(Cl)ccc(F)c1Cl` [Example 300, 2-[4-(4-{6-Amino-7-[(R)-1-(2,6-dichloro-3-fluorophenyl)ethoxy]furo[3,2-c]pyridin-3-yl}benzoyl)piperazin-1-yl]-N,N-dimethylacetamide], the pIC50 in assay [1] and in assay [2] was 5.30 to 6.30 in each case.

In the case of `C[C@@H](Oc1c(N)ncc2c(-c3ccc(C(=O)N4CCN(CCOCCO)CC4)cc3)coc12)c1c(Cl)ccc(F)c1Cl` [Example 301, (4-{6-Amino-7-[(R)-1-(2,6-dichloro-3-fluoro-phenyl)ethoxy]furo[3,2-c]pyridin-3-yl}phenyl)-{4-[2-(2-hydroxyethoxy)ethyl]piperazin-1-yl}methanone], the negative-log IC50 (pIC50) in assay [1] and in assay [2] was 5.30 to 6.30 throughout.

Regarding `C[C@@H](Oc1c(N)ncc2c(-c3csc(C=O)c3)coc12)c1c(Cl)ccc(F)c1Cl` [Example 302, 4-{6-Amino-7-[(R)-1-(2,6-dichloro-3-fluorophenyl)ethoxy]furo[3,2-c]pyridin-3-yl}thiophene-2-carbaldehyde], the negative logarithm of the IC50 (pIC50) in assay [1] and in assay [2] was 5.30 to 6.30 each time.

For the molecule `C[C@@H](Oc1c(N)ncc2c(-c3csc(CN(C)C)c3)coc12)c1c(Cl)ccc(F)c1Cl` [Example 303, 7-[(R)-1-(2,6-Dichloro-3-fluorophenyl)ethoxy]-3-(5-dimethyl-aminomethylthiophen-3-yl)furo[3,2-c]pyridin-6-ylamine], the negative-log IC50 (pIC50) in assay [1] and in assay [2] was more than 6.30 in each case.

For `C[C@@H](Oc1c(N)ncc2c(-c3csc(CN4CCN(C)CC4)c3)coc12)c1c(Cl)ccc(F)c1Cl` [Example 304, 7-[(R)-1-(2,6-Dichloro-3-fluorophenyl)ethoxy]-3-[5-(4-methyl-piperazin-1-ylmethyl)thiophen-3-yl]-furo[3,2-c]pyridin-6-ylamine], the pIC50 in assay [1] and in assay [2] was more than 6.30 throughout.

Turning to `C[C@@H]1CN(Cc2cc(-c3coc4c(O[C@H](C)c5c(Cl)ccc(F)c5Cl)c(N)ncc34)cs2)C[C@H](C)N1` [Example 305, 7-[(R)-1-(2,6-Dichloro-3-fluorophenyl)ethoxy]-3-[5-(cis-3,5-dimethylpiperazin-1-ylmethyl)thiophen-3-yl]-furo[3,2-c]pyridin-6-ylamine], the negative-log IC50 (pIC50) in assay [1] and in assay [2] was more than 6.30 in each case.

Turning to `C[C@@H](Oc1c(N)ncc2c(-c3csc(CN4CCC(O)CC4)c3)coc12)c1c(Cl)ccc(F)c1Cl` [Example 306, 1-(4-{6-Amino-7-[(R)-1-(2,6-dichloro-3-fluorophenyl)ethoxy]furo[3,2-c]pyridin-3-yl}thiophen-2-ylmethyl)piperidin-4-ol], the pIC50 in assay [1] and in assay [2] was more than 6.30 throughout.

Take `C[C@@H](Oc1c(N)ncc2c(-c3csc(CN4CCC(O)C4)c3)coc12)c1c(Cl)ccc(F)c1Cl` (stereo partly drawn) [Example 307, 1-(4-{6-Amino-7-[(R)-1-(2,6-dichloro-3-fluorophenyl)-ethoxy]furo[3,2-c]pyridin-3-yl}thiophen-2-ylmethyl)pyrrolidin-3-ol]: the pIC50 in assay [1] and in assay [2] was more than 6.30 in each case.

`C[C@@H](Oc1c(N)ncc2c(-c3csc(CN4CCCC4)c3)coc12)c1c(Cl)ccc(F)c1Cl` [Example 308, 7-[(R)-1-(2,6-Dichloro-3-fluorophenyl)ethoxy]-3-(5-pyrrolidin-1-ylmethylthiophen-3-yl)furo[3,2-c]pyridin-6-ylamine]: the negative logarithm of the IC50 (pIC50) in assay [1] and in assay [2] was more than 6.30 each time.

Consider `C[C@@H](Oc1c(N)ncc2c(-c3csc(CN4CCC4)c3)coc12)c1c(Cl)ccc(F)c1Cl` [Example 309, 3-(5-Azetidin-1-ylmethylthiophen-3-yl)-7-[(R)-1-(2,6-dichloro-3-fluorophenyl)ethoxy]furo[3,2-c]pyridin-6-ylamine], for which the negative-log IC50 (pIC50) in assay [1] and in assay [2] was more than 6.30 throughout.

As to `C[C@@H](Oc1c(N)ncc2c(-c3csc(CN)c3)coc12)c1c(Cl)ccc(F)c1Cl` [Example 310, 3-(5-Aminomethylthiophen-3-yl)-7-[(R)-1-(2,6-dichloro-3-fluoro-phenyl)ethoxy]furo[3,2-c]pyridin-6-ylamine], the pIC50 in assay [1] and in assay [2] was more than 6.30 each time.

For `C[C@@H](Oc1c(N)ncc2c(-c3csc(C(=O)O)c3)coc12)c1c(Cl)ccc(F)c1Cl` [Example 311, 4-{6-Amino-7-[(R)-1-(2,6-dichloro-3-fluorophenyl)ethoxy]furo[3,2-c]pyridin-3-yl}thiophene-2-carboxylic acid], the figures for the negative logarithm of the IC50 (pIC50) in assay [1] and in assay [2] were 5.30 to 6.30 and more than 6.30, respectively.

For the molecule `CC(C)NC(=O)c1cc(-c2coc3c(O[C@H](C)c4c(Cl)ccc(F)c4Cl)c(N)ncc23)cs1` [Example 312, 4-{6-Amino-7-[(R)-1-(2,6-dichloro-3-fluorophenyl)ethoxy]furo[3,2-c]pyridin-3-yl}thiophene-2-carboxylic acid isopropylamide], the pIC50 was 5.30 to 6.30 in assay [1] and more than 6.30 in assay [2].

For the molecule `C[C@@H](Oc1c(N)ncc2c(-c3csc(C(=O)N4CCC(O)CC4)c3)coc12)c1c(Cl)ccc(F)c1Cl` [Example 313, (4-{6-Amino-7-[(R)-1-(2,6-dichloro-3-fluorophenyl)ethoxy]-furo[3,2-c]pyridin-3-yl}-thiophen-2-yl)-(4-hydroxypiperidin-1-yl)methanone], the pIC50 in assay [1] and in assay [2] was 5.30 to 6.30 in each case.

For `CCNC(=O)c1cc(-c2coc3c(O[C@H](C)c4c(Cl)ccc(F)c4Cl)c(N)ncc23)cs1` [Example 314, 4-{6-Amino-7-[(R)-1-(2,6-dichloro-3-fluorophenyl)ethoxy]furo[3,2-c]pyridin-3-yl}-thiophene-2-carboxylic acid Ethylamide], the negative-log IC50 (pIC50) in assay [1] and in assay [2] was 5.30 to 6.30 in each case.

For `C[C@@H](Oc1c(N)ncc2c(-c3csc(C(=O)NC(C)(C)C)c3)coc12)c1c(Cl)ccc(F)c1Cl` [Example 315, 4-{6-Amino-7-[(R)-1-(2,6-dichloro-3-fluorophenyl)ethoxy]-furo[3,2-c]pyridin-3-yl}thiophene-2-carboxylic acid tert-butylamide], the pIC50 is 5.30 to 6.30 in assay [1] and more than 6.30 in assay [2].

In the case of `C[C@@H](Oc1c(N)ncc2c(-c3csc(C(=O)N4CCN(C)CC4)c3)coc12)c1c(Cl)ccc(F)c1Cl` [Example 316, (4-{6-Amino-7-[(R)-1-(2,6-dichloro-3-fluorophenyl)ethoxy]furo[3,2-c]pyridin-3-yl}thiophen-2-yl)-(4-methylpiperazin-1-yl)methanone], the pIC50 in assay [1] and in assay [2] was more than 6.30 in each case.

For orientation: pIC50 means the negative decadic logarithm of the IC50, by convention in mol/L.

Source of the values: patent publication US8022206B2 (OSI Pharmaceuticals, LLC, priority 2008, dated 2011).
